Test results: PMC12627007, “HIV nucleocapsid proteins as targets for novel 1,2-benzisothiazol-3(2H)-one benzenesulfonamides: synthesis and antiretroviral activity” (Frontiers in Microbiology, 2025)
Where two headings read alike, the source gives them in different places.

Tests used:
HIV-1 N119 (Y181C) = test: Inhibition of virus-induced cytopathogenicity in MT-4 cells, NNRTI-resistant mutant N119; format: cell-based
Summary of the method: (§1)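 Inhibition of virus-induced cytopathogenicity in MT-4 cells (1 × 10^4 per well) infected with wild-type IIIB or resistant mutants at m.o.i. 0.01, with serially diluted compound present from infection. Virus input was set to give complete cytopathogenicity on day 4. The EFVR mutant was selected by IIIB passage under Efavirenz.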

[1] = system: HIV-1 MDR (74V, 41L, 106A, 215Y); test: Inhibition of virus-induced cytopathogenicity in MT-4 cells, NRTI-resistant mutant MDR; format: cell-based
Summary of the method: as §1

HIV-1 IIIB strain = test: microbe, parasite or virus in culture; format: cell-based; settings: for EC50: Human immunodeficiency virus 1, IIIB
Summary of the method: as §1

[2] = microbe, parasite or virus in culture; format: cell-based, HIV-1; settings: all tested strains (HIV-1 wt, mutants, HIV-2)
Summary of the method: as §1

[3] = system: HIV-1 EFVR (K103R + V179D + P225H); test: Inhibition of virus-induced cytopathogenicity in MT-4 cells, NNRTI-resistant mutant EFVR; format: cell-based
Summary of the method: as §1

[4] = target: T1, HIV-1 reverse transcriptase (Human immunodeficiency virus type 1 group M subtype B, UniProt P04585); test: Reverse transcriptase enzyme assay; format: biochemical
T1 construct: recombinant HIV-1 reverse transcriptase

[5] = system: HIV-1 AZTR (67N, 70R, 215F, 219Q); test: Inhibition of virus-induced cytopathogenicity in MT-4 cells, NRTI-resistant mutant AZTR; format: cell-based
Summary of the method: as §1

HIV-2 CBL-20 strain = test: Inhibition of HIV-2-induced cytopathogenicity in C8166 cells (MTT); format: cell-based
Protocol: HIV-1IIIB and HIV-2 CBL-20 strains were obtained from the supernatants of persistently infected H9/IIIB and CEM cells, respectively. HIV-1 and HIV-2 stock solutions had titres of 4.5 × 10^7 and 1.4 × 10^6 50% cell culture infectious doses (CCID50)/ml, respectively. […] The K103R + V179D + P225H mutant (EFVR) was derived from an IIIB strain passaged in MT-4 cells in the presence of Efavirenz (up to 2 μM). N119, A17 and EFV^R stock solutions had titres of 1.2 × 10^8, 2.1 × 10^7, and 4.0 × 10^7 CCID50/ml, respectively.
The activity of the test compounds against the replication of HIV-1 wt and mutant strains (N119, A17, EFV^R, AZT^R, MDR, SAQ^R) and HIV-2 wt in acutely infected cells was based on the inhibition of virus-induced cytopathogenicity in MT-4 and C8166 cells, respectively. Briefly, 50 μL of culture medium containing 1 × 10^4 cells was added to each well of flat-bottom microtitre trays containing 50 μL of culture medium with or without different serial concentrations of test compounds. Then, 20 μL of an HIV suspension (containing the appropriate amount of CCID50 required to cause complete cytopathogenicity on day 4, final multiplicity of infection [m.o.i.] 0.01) was added.

HIV-1 wt = test: Time of addition assay in MT-4 cells; format: cell-based; settings: compound 6 15 μM, EFV 0.05 μM; MT-4, m.o.i. 5
Protocol: 2 × 10^4 MT-4 cells were infected for 1 h at 20 °C with HIV-1 at a high multiplicity of infection (m.o.i. = 5), corresponding to 5 cell culture infectious dose 50 per cell (CCID50/cell).
(§2) Titration was performed in C8166 cells using the standard limiting dilution method (dilution 1:2, four replica wells/dilution) in 96-well plates.
Virus yields were determined using the Reed–Muench method. Bars are mean values, and whiskers are standard deviations (SD) of three independent experiments.

[6] = system: chronically HIV-1-infected H9 cells / uninfected C8166 cells; test: Syncytium formation in chronically infected H9/C8166 cocultures (entry assay); format: cell-based; settings: 30 μM, 36 h
Protocol: Chronically infected H9 cells were washed and cocultured with uninfected C8166 cells (ratio 1:500) in the absence or presence of test inhibitors. Following 36 h of incubation at 37 °C, cocultures were monitored by optical microscopy, syncytia were counted, and those found in drug-treated cocultures were reported as a percentage of those counted in untreated cocultures ([Wang et al., 2004]).
In this assay, syncytia were formed as a result of the interaction of env-encoded glycoproteins (present on the outer membrane of chronically infected H9 cells) with the CD4 of cocultured C8166 cells.
Figure 3 Comparative activity of compound 6 (30 μM) and dextran sulphate (0.5 μM) in preventing syncytium formation in chronically infected H9/C8166 cocultures. The H9/C8166 ratio was […]. The cells were incubated for 36 h at 37 °C. Data represent mean values of at least three independent determinations of syncytial numbers using an optical microscope. Bars are mean values, and whiskers are standard deviations (SD) of at least three independent experiments.

cell-free HIV-2 = test: Virucidal activity against cell-free HIV-2 (Reed-Muench titration); format: cell-based
Protocol: (§3) Cell-free, high-titre HIV-1 and HIV-2 stock solutions were exposed to the test compounds for 2 h at 0 °C or 37 °C. At the end of incubation, residual infectivity was determined using the Reed–Muench end-point titration method, as described below.
as §2

[7] = system: HIV-1 A17 (K103N + Y181C); test: Inhibition of virus-induced cytopathogenicity in MT-4 cells, NNRTI-resistant mutant A17; format: cell-based
Summary of the method: as §1

[8] = target: T2, HIV-1 recombinant integrase (rIN) (Human immunodeficiency virus type 1 group M subtype B, UniProt P04585); test: Integrase (rIN) enzyme assays: 3'-processing and strand transfer; format: biochemical; settings: for IC50: recombinant HIV-1 integrase
T2 construct: HIV-1 recombinant integrase (rIN); made in house
Source text: ^aCompound concentration (µM) required to reduce the amount of 3’-end-labeled duplex of 21/19mers substrates, in 3’-processing and strand-transfer reactions catalyzed by the recombinant HIV-1 integrase, by 50%. Data represent mean values for three independent determinations.

[9] = system: HIV-1 SAQR (L10F, G48V, L90M); test: Inhibition of virus-induced cytopathogenicity in MT-4 cells, PRI-resistant mutant SAQR; format: cell-based
Summary of the method: as §1

cell-free HIV-1 = test: Virucidal activity against cell-free HIV-1 (Reed-Muench titration); format: cell-based; settings: for Infectivity inactivation of cell-free HIV-1: 37 °C
Protocol: as §3, §2

[10] = Cytotoxicity in mock-infected MT-4 cells (MTT method); format: cell-based; settings: human
Summary of the method: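 Mock-infected MT-4 cells (1 × 10^4 per well) incubated at 37 °C with serial concentrations of test compound, run in parallel with the HIV cytopathogenicity assay (day-4 read). Viability read by MTT method.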

[11] = 0 °C, compound 6 80 μM, AMPH-B 100 μM

O=c1c2ccccc2sn1NS(=O)(=O)c1ccccc1 [Compound 6, N-(3-Oxo-1,2-benzisothiazol-2(3H)-yl)benzenesulfonamide]
EC50 (HIV-1 N119 (Y181C); Human immunodeficiency virus 1, MT4, read-out: EC50 N119): 7 ± 1.5 µM | Selectivity Index (SI = CC50/EC50) N119 (HIV-1 N119 (Y181C); in round brackets): 12 | EC50 ([1]; Human immunodeficiency virus 1, MT4, read-out: EC50 MDR): 4 ± 1.5 µM | Selectivity Index (SI = CC50/EC50) MDR ([1]; in round brackets): 21 | EC50 (HIV-1 IIIB strain; MT4, read-out: EC50 HIV-1): 8 ± 3 µM | EC50 (HIV-1 IIIB strain; MT4, read-out: EC50 HIV-1 (Table 2)): 8 ± 3 µM | Selectivity Index (SI = CC50/EC50) HIV-1 (HIV-1 IIIB strain; IIIB strain, in round brackets): 10 | Selectivity Index (SI) against all tested strains [2]: around 10 | EC50 ([3]; Human immunodeficiency virus 1, MT4, read-out: EC50 EFVR): 7 ± 2 µM | Selectivity Index (SI = CC50/EC50) EFVR ([3]; in round brackets): 12 | Inhibition of recombinant HIV-1 RT ([4]; at concentrations of 30 μM): none of the benzenesulfonamides were active | IC50 ([4]; virion-associated RT): > 30 µM | EC50 ([5]; Human immunodeficiency virus 1, MT4, read-out: EC50 AZTR): 6 ± 0.7 µM | Selectivity Index (SI = CC50/EC50) AZTR ([5]; in round brackets): 14 | EC50 (HIV-2 CBL-20 strain; Human immunodeficiency virus 2, C8166, read-out: EC50 HIV-2): 7 ± 0.7 µM | EC50 (HIV-2 CBL-20 strain; Human immunodeficiency virus 2, C8166, read-out: EC50 HIV-2 (Table 2)): 7 ± 0.7 µM | Selectivity Index (SI = CC50/EC50) HIV-2 (HIV-2 CBL-20 strain; in round brackets): 12 | Infectious virus yield when compound present only during the 1-h infection period (HIV-1 wt): infectious virus yield similar to that of the untreated infected controls | Time of addition p.i. up to which the compound still prevents virus yield (HIV-1 wt): up to 12 h | Interference with syncytia formation / very early events (adsorption/attachment/fusion) [6]: did not interfere | Effect on HIV-2 infectivity, incubation at 0 °C (cell-free HIV-2; [11]): failed to significantly affect HIV-2 infectivity | Infectivity inactivation of cell-free HIV-2 (cell-free HIV-2; 25 and 12.5 μM, 37 °C): only marginal or no effects | Inactivation of HIV-2 virion infectivity (cell-free HIV-2; 37 °C, compound 6 80 μM, AMPH-B 100 μM): approximately 2 log10 | Infectivity inactivation of cell-free HIV-2 (cell-free HIV-2; 100 and 50 μM, 37 °C): strongly inactivated the infectivity | EC50 ([7]; Human immunodeficiency virus 1, MT4, read-out: EC50 A17): 8 ± 1 µM | Selectivity Index (SI = CC50/EC50) A17 ([7]; in round brackets): 10 | Inhibition of recombinant HIV-1 IN ([8]; at concentrations of 30 μM): none of the benzenesulfonamides were active | IC50 ([8]; read-out: IC50 3'-Processing): > 30 µM | IC50 ([8]; read-out: IC50 Strand-transfer): > 30 µM | EC50 ([9]; Human immunodeficiency virus 1, MT4, read-out: EC50 SAQR): 8 ± 0.7 µM | Selectivity Index (SI = CC50/EC50) SAQR ([9]; in round brackets): 10 | Effect on HIV-1 infectivity, incubation at 0 °C (cell-free HIV-1; [11]): failed to affect HIV-1 infectivity | Infectivity inactivation of cell-free HIV-1 (cell-free HIV-1; 25 and 12.5 μM): only marginal or no effects | Infectivity inactivation of cell-free HIV-1 (cell-free HIV-1; 100 and 50 μM): strongly inactivated the infectivity | Inactivation of HIV-1 infectivity (cell-free HIV-1; 2 h at 37 °C, compound 6 80 μM, AMPH-B 100 μM): more than 3 log10 | CC50 at 4 days [10]: 86 ± 4 µM
